What all share (type): in vivo
Experiment [1] relates to DROSME, AEDSAE, LAPHEG, or HELIVI. Kind of experiment: Insecticidal activity, active if any of DROSME, AEDSAE, LAPHEG or HELIVI was controlled at 80% or more. Particulars: read-out: >80% mortality on any insect species @ 4000 ppm.
Another experiment has as its system Colletotricum lagenarium. Kind of experiment: Cucumber Anthracnose (COLLLA), foliar spray, percent disease control.
Experiment [2] deals with Pseudoperonospora cubensis. Kind of experiment: Cucumber Downy Mildew (PSPECU), foliar spray, percent disease control. Particulars: read-out: PSPECU percent control.
A further experiment has as its system Cochliobolus sativus. The experiment can be described thus: Spot Blotch of Wheat (COCHSA), foliar spray, percent disease control.
The mark [3] stands for this setting: Bipolaris sorokiniana, foliar; read-out: COCHSA percent control.

Here are results for 32 molecules from patent publication US8895568B2, “Compositions comprising substituted pteridines as agrochemicals” (Dow AgroSciences LLC, priority 2009, dated 2014).

Structures are written as SMILES. Read-outs that look alike come from different tables or passages of the source.

Consider `CCCOc1cc(CCNc2ncnc3nccnc23)ccc1Oc1cc(C(F)(F)F)ccn1` [Compound 188], for which, in experiment [1], the pest or weed control at 4000 ppm was > 80%. In addition, the pest or weed control at 200 µg/mL in the experiment on Colletotricum lagenarium (foliar) was in the range of 80 to 100%; in experiment [2] (foliar) it was 80 to 100%; in the experiment with Cochliobolus sativus (setting [3]), 0 to 49%.

As to `CC(C)(C)OC(=O)c1ccnc(Oc2ccc(CCNc3ncnc4nccnc34)cc2)c1` [Compound 192], in experiment [1], the pest or weed control at 4000 ppm is > 80%. Besides, the values for the pest or weed control at 200 µg/mL (with Colletotricum lagenarium (foliar); in experiment [2] (foliar); with Cochliobolus sativus (setting [3])) were 80 to 100%, 80 to 100% and 0 to 49%, respectively.

As for `Cc1cnc2ncnc(NCCc3ccc(Oc4ccc(C(F)(F)F)cn4)cc3)c2n1` [Compound 41], the pest or weed control at 4000 ppm in experiment [1] was > 80%. The pest or weed control at 200 µg/mL in the experiment on Colletotricum lagenarium (foliar) lay in the range of 50 to 79%; in experiment [2] (foliar), 80 to 100%; with Cochliobolus sativus (setting [3]) it was 0 to 49%.

Turning to `Cc1cnc2ncnc(NCCc3ccc(Oc4cncc(Cl)c4C#N)cc3)c2n1` [Compound 120], the pest or weed control at 4000 ppm in experiment [1] is > 80%. Also, the pest or weed control at 200 µg/mL (with Colletotricum lagenarium (foliar); in experiment [2] (foliar); in the experiment with Cochliobolus sativus (setting [3])) was 0 to 49% in each case.

`CCOc1cccc(Oc2ccc(CCNc3ncnc4nccnc34)cc2)n1` [Compound 12, {2-[4-(6-Ethoxypyridin-2-yloxy)-phenyl]-ethyl}-pteridin-4-yl-amine]: in experiment [1], the pest or weed control at 4000 ppm is > 80%. The figures for the pest or weed control at 200 µg/mL (with Colletotricum lagenarium (foliar); in experiment [2] (foliar); with Cochliobolus sativus (setting [3])) were 0 to 49%, 80 to 100% and 0 to 49%, respectively.

For `N#Cc1ccnc(Oc2ccc(CCNc3ncnc4nccnc34)cc2)c1` [Compound 8], the pest or weed control at 4000 ppm in experiment [1] was > 80%. Further, the pest or weed control at 200 µg/mL with Colletotricum lagenarium (foliar) was 80 to 100%; in experiment [2] (foliar), 80 to 100%; in the experiment with Cochliobolus sativus (setting [3]), 0 to 49%.

On to `FC(F)(F)c1ccc(Oc2ccc(CCNc3ncnc4nccnc34)cn2)cc1` [Compound 126], for which, in experiment [1], the pest or weed control at 4000 ppm was > 80%. Besides, the pest or weed control at 200 µg/mL in the experiment with Colletotricum lagenarium (foliar) lay in the range of 80 to 100%; in experiment [2] (foliar), 80 to 100%; in the experiment on Cochliobolus sativus (setting [3]), 0 to 49%.

On to `c1cnc(Oc2ccc(CCNc3ncnc4nccnc34)cc2)cn1` [Compound 28], for which, in experiment [1], the pest or weed control at 4000 ppm was > 80%. Moreover, the pest or weed control at 200 µg/mL in the experiment with Colletotricum lagenarium (foliar) lay within 0 to 49%; in experiment [2] (foliar) it was 80 to 100%; in the experiment on Cochliobolus sativus (setting [3]), 0 to 49%.

`Fc1cccc(Oc2ccc(CCNc3ncnc4nccnc34)cc2)n1` [Compound 7, {2-[4-(6-Fluoropyridin-2-yloxy)-phenyl]-ethyl}-pteridin-4-ylamine]: the pest or weed control at 4000 ppm in experiment [1] is > 80%. The results for the pest or weed control at 200 µg/mL (in the experiment on Colletotricum lagenarium (foliar); in experiment [2] (foliar); in the experiment with Cochliobolus sativus (setting [3])) were 0 to 49%, 80 to 100% and 0 to 49%, respectively.

In the case of `CC(Nc1ncnc2nccnc12)c1ccc(Oc2ccc(C(F)(F)F)cn2)cc1` (centres unmarked) [Compound 67], the pest or weed control at 4000 ppm in experiment [1] is > 80%. Further, the pest or weed control at 200 µg/mL was in the range of 0 to 49% in the experiment with Colletotricum lagenarium (foliar), 80 to 100% in experiment [2] (foliar) and 0 to 49% in the experiment on Cochliobolus sativus (setting [3]).

For `c1cnc(Oc2ccc(CCNc3ncnc4nccnc34)cc2)nc1` [Compound 15], the pest or weed control at 4000 ppm in experiment [1] was > 80%. Besides, the pest or weed control at 200 µg/mL with Colletotricum lagenarium (foliar) was 0 to 49%; in experiment [2] (foliar), 80 to 100%; in the experiment with Cochliobolus sativus (setting [3]), 0 to 49%.

For `Cc1c(CCNc2ncnc3nccnc23)ccc(Oc2cc(C(F)(F)F)ccn2)c1C` [Compound 145], the pest or weed control at 4000 ppm in experiment [1] is > 80%. Also, the pest or weed control at 200 µg/mL with Colletotricum lagenarium (foliar) fell in the range of 50 to 79%; in experiment [2] (foliar) it was 80 to 100%; in the experiment with Cochliobolus sativus (setting [3]), 0 to 49%.

For `Cc1cc(CCNc2ncnc3nccnc23)ccc1Oc1c(F)cnc(C(F)(F)F)c1F` [Compound 166], the pest or weed control at 4000 ppm in experiment [1] was > 80%. Besides, the pest or weed control at 200 µg/mL with Colletotricum lagenarium (foliar) lay in the range of 50 to 79%; in experiment [2] (foliar) it was 80 to 100%; in the experiment on Cochliobolus sativus (setting [3]), 0 to 49%.

Take `Fc1cc(C(F)(F)F)cnc1Oc1ccc(CCNc2ncnc3ncc(Cl)nc23)cc1` [Compound 118]: the pest or weed control at 4000 ppm in experiment [1] is > 80%. Besides, the pest or weed control at 200 µg/mL (in the experiment on Colletotricum lagenarium (foliar); in experiment [2] (foliar); in the experiment with Cochliobolus sativus (setting [3])) was 0 to 49% in each case.

For `FC(F)(F)c1ccc(Oc2ccc(OCCNc3ncnc4nccnc34)cc2)nc1` [Compound 84], the pest or weed control at 4000 ppm in experiment [1] was > 80%. Moreover, the pest or weed control at 200 µg/mL lay within 80 to 100% in the experiment on Colletotricum lagenarium (foliar), 80 to 100% in experiment [2] (foliar) and 0 to 49% with Cochliobolus sativus (setting [3]).

As for `Fc1cc(Oc2cc(C(F)(F)F)ccn2)ccc1CCNc1ncnc2nccnc12` [Compound 103], the pest or weed control at 4000 ppm in experiment [1] was > 80%. In addition, the pest or weed control at 200 µg/mL with Colletotricum lagenarium (foliar) is 0 to 49%; in experiment [2] (foliar), 80 to 100%; in the experiment on Cochliobolus sativus (setting [3]), 0 to 49%.

Consider `c1csc(Oc2ccc(CCNc3ncnc4nccnc34)cc2)n1` [Compound 48], for which the pest or weed control at 4000 ppm in experiment [1] was > 80%. Also, the pest or weed control at 200 µg/mL in the experiment with Colletotricum lagenarium (foliar) fell in the range of 0 to 49%; in experiment [2] (foliar), 80 to 100%; in the experiment on Cochliobolus sativus (setting [3]), 0 to 49%.

Take `Cc1cc(Oc2ccc(C(F)(F)F)cn2)c(C)cc1CCNc1ncnc2nccnc12` [Compound 156]: the pest or weed control at 4000 ppm in experiment [1] is > 80%. The pest or weed control at 200 µg/mL was in the range of 0 to 49% with Colletotricum lagenarium (foliar), 80 to 100% in experiment [2] (foliar) and 0 to 49% in the experiment with Cochliobolus sativus (setting [3]).

In the case of `CC(F)(F)c1ccnc(Oc2ccc(CCNc3ncnc4nccnc34)cc2)c1` [Compound 44], the pest or weed control at 4000 ppm in experiment [1] is > 80%. For the same molecule, the pest or weed control at 200 µg/mL with Colletotricum lagenarium (foliar) lay within 50 to 79%; in experiment [2] (foliar) it was 80 to 100%; in the experiment on Cochliobolus sativus (setting [3]), 0 to 49%.

With `c1ccc(-c2nnsc2Oc2ccc(CCNc3ncnc4nccnc34)cc2)cc1` [Compound 58], the pest or weed control at 4000 ppm in experiment [1] was > 80%. Besides, the pest or weed control at 200 µg/mL was in the range of 0 to 49% with Colletotricum lagenarium (foliar), 50 to 79% in experiment [2] (foliar) and 0 to 49% in the experiment on Cochliobolus sativus (setting [3]).

As to `Cc1cccc(Oc2ccc(CCNc3ncnc4nccnc34)cc2)n1` [Compound 39], the pest or weed control at 4000 ppm in experiment [1] is > 80%. Besides, the pest or weed control at 200 µg/mL in the experiment on Colletotricum lagenarium (foliar) fell in the range of 0 to 49%; in experiment [2] (foliar), 80 to 100%; in the experiment with Cochliobolus sativus (setting [3]), 0 to 49%.

For `FC(F)(F)c1ccnc(Oc2ccc(CCNc3ncnc4nccnc34)cc2)c1` [Compound 2, pteridin-4-yl-{2-[4-(4-trifluoromethylpyridin-2-yloxy)-phenyl]-ethyl}-amine], in experiment [1], the pest or weed control at 4000 ppm was > 80%. For the same molecule, the pest or weed control at 200 µg/mL lay within 80 to 100% in the experiment on Colletotricum lagenarium (foliar), 80 to 100% in experiment [2] (foliar) and 50 to 79% in the experiment on Cochliobolus sativus (setting [3]).

For `Ic1ccnc(Oc2ccc(CCNc3ncnc4nccnc34)cc2)c1` [Compound 36, N-(2-{4-[(4-iodopyridin-2-yl)oxy]phenyl}ethyl)pteridin-4-amine], the pest or weed control at 4000 ppm in experiment [1] was > 80%. Moreover, the pest or weed control at 200 µg/mL was 50 to 79% with Colletotricum lagenarium (foliar), 80 to 100% in experiment [2] (foliar) and 50 to 79% with Cochliobolus sativus (setting [3]).

For the molecule `FC(F)(F)c1ccnc(Oc2ccc(CCNc3ncnc4nccnc34)cc2Br)c1` [Compound 212, {2-[3-bromo-4-(4-trifluoromethylpyridin-2-yloxy)-phenyl]-ethyl}-pteridin-4-yl-amine], in experiment [1], the pest or weed control at 4000 ppm is > 80%. For the same molecule, the pest or weed control at 200 µg/mL in the experiment with Colletotricum lagenarium (foliar spray) was in the range of 80 to 100%; in experiment [2] (foliar spray) it was 80 to 100%; in the experiment on Cochliobolus sativus (Bipolaris sorokiniana; foliar spray; read-out: COCHSA percent control), 50 to 79%.

For the molecule `FC(F)(F)c1nc(Oc2ccc(CCNc3ncnc4nccnc34)cc2)ccc1Cl` [Compound 92], the pest or weed control at 4000 ppm in experiment [1] is > 80%. For the same molecule, the pest or weed control at 200 µg/mL with Colletotricum lagenarium (foliar) fell in the range of 0 to 49%; in experiment [2] (foliar), 80 to 100%; with Cochliobolus sativus (setting [3]), 0 to 49%.

Turning to `FC(F)(F)c1ccc(Oc2ccc(CCNc3ncnc4nccnc34)cc2)nn1` [Compound 34], the pest or weed control at 4000 ppm in experiment [1] was > 80%. Besides, the values for the pest or weed control at 200 µg/mL (in the experiment on Colletotricum lagenarium (foliar); in experiment [2] (foliar); in the experiment with Cochliobolus sativus (setting [3])) were 0 to 49%, 80 to 100% and 0 to 49%, respectively.

Take `Cc1cc(CCNc2ncnc3nccnc23)ccc1Oc1cc(C(F)(F)F)ccn1` [Compound 109]: in experiment [1], the pest or weed control at 4000 ppm is > 80%. The pest or weed control at 200 µg/mL in the experiment on Colletotricum lagenarium (foliar) was 50 to 79%; in experiment [2] (foliar), 80 to 100%; in the experiment with Cochliobolus sativus (setting [3]) it was 0 to 49%.

Consider `N#Cc1cccc(Oc2ccc(CCNc3ncnc4nccnc34)cc2)n1` [Compound 13], for which, in experiment [1], the pest or weed control at 4000 ppm was > 80%. Moreover, the pest or weed control at 200 µg/mL lay in the range of 0 to 49% in the experiment with Colletotricum lagenarium (foliar), 80 to 100% in experiment [2] (foliar) and 0 to 49% in the experiment on Cochliobolus sativus (setting [3]).

Regarding `c1ccc(-c2ccc(CCNc3ncnc4nccnc34)cc2)cc1` [Compound 125], in experiment [1], the pest or weed control at 4000 ppm was > 80%. Besides, the pest or weed control at 200 µg/mL in the experiment on Colletotricum lagenarium (foliar) lay in the range of 50 to 79%; in experiment [2] (foliar) it was 80 to 100%; in the experiment on Cochliobolus sativus (Bipolaris sorokiniana, foliar, read-out: COCHSA percent control), 0 to 49%.

With `Cc1c(CCNc2ncnc3nccnc23)ccc(Oc2ccc(C(F)(F)F)cn2)c1C` [Compound 144], the pest or weed control at 4000 ppm in experiment [1] was > 80%. In addition, the pest or weed control at 200 µg/mL was in the range of 0 to 49% in the experiment with Colletotricum lagenarium (foliar), 80 to 100% in experiment [2] (foliar) and 0 to 49% in the experiment on Cochliobolus sativus (setting [3]).

Consider `FC(F)(F)c1ccnc(Oc2ccc(CCNc3ncnc4nccnc34)cc2Cl)c1` [Compound 187], for which the pest or weed control at 4000 ppm in experiment [1] was > 80%. In addition, the pest or weed control at 200 µg/mL in the experiment on Colletotricum lagenarium (foliar) was 80 to 100%; in experiment [2] (foliar) it was 80 to 100%; in the experiment on Cochliobolus sativus (setting [3]) it was 0 to 49%.

Regarding `CCCOc1cc(CCNc2ncnc3nccnc23)ccc1Oc1cc(C(C)(F)F)ccn1` [Compound 199], the pest or weed control at 4000 ppm in experiment [1] was > 80%. Also, the pest or weed control at 200 µg/mL in the experiment with Colletotricum lagenarium (foliar) was 0 to 49%; in experiment [2] (foliar), 80 to 100%; in the experiment on Cochliobolus sativus (setting [3]), 0 to 49%.
